According to ChEMBL document CHEMBL1201862, “PubChem BioAssay data set” (2004):
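Cells were grown in 96-well plates and exposed to each compound for 48 hours at five concentrations; endpoints were interpolated linearly between bracketing concentrations, or set to the highest concentration if not reached. The concentration for 50% growth inhibition is given as GI50.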 Activity calls are given as the source filed them. Cut-off read from the data, not from the text of the source: active = GI50 up to about 1.1 µM and inactive = higher.

Tests used:
Test in all cases: inhibition of tumour cell growth, NCI panel, 48 h
NCI-H23 = system: NCI-H23
SW-620 = system: SW-620
M14 = system: M14
MDA-MB-231 = system: MDA-MB-231
Malme-3M = system: Malme-3M
EKVX = system: EKVX
NCI/ADR-RES = system: NCI/ADR-RES
MDA-N = system: MDA-N
UACC-257 = system: UACC-257
SF-268 = system: SF-268
HCT-116 = system: HCT-116
COLO 205 = system: COLO 205
KM12 = system: KM12
ACHN = system: ACHN
SR = system: SR
SK-MEL-5 = system: SK-MEL-5
MDA-MB-435 = system: MDA-MB-435
LOX IMVI = system: LOX IMVI
SNB-75 = system: SNB-75
SF-539 = system: SF-539

Measured: GI50

c1ccc(CCN2CCOCC2)nc1
inactive: NCI-H23 > 100 µM | SW-620 > 100 µM | M14 > 100 µM | MDA-MB-231 > 100 µM | Malme-3M > 100 µM | EKVX > 100 µM | NCI/ADR-RES > 100 µM | MDA-N > 100 µM | UACC-257 > 100 µM | SF-268 > 100 µM | HCT-116 > 100 µM | COLO 205 > 100 µM | KM12 > 100 µM | ACHN > 100 µM | SR > 100 µM | SK-MEL-5 > 100 µM | MDA-MB-435 > 100 µM | LOX IMVI > 100 µM

CCCC1c2c(ccc3ccccc23)Oc2ccc3ccccc3c21
inactive: NCI-H23 60.4 µM | SW-620 82.4 µM | M14 74 µM | MDA-MB-231 31.7 µM | Malme-3M 57.3 µM | SNB-75 > 100 µM | EKVX 33.5 µM | NCI/ADR-RES 94 µM | MDA-N 39.6 µM | UACC-257 24.2 µM | SF-268 79.8 µM | HCT-116 20.7 µM | COLO 205 41.9 µM | KM12 39.3 µM | ACHN 31 µM | SF-539 > 100 µM | SK-MEL-5 34.7 µM | MDA-MB-435 41.4 µM | LOX IMVI 32.5 µM

CN1C(=O)C(CC=O)(C(C)(C)C)c2ccccc21 (stereo unspecified)
inactive: NCI-H23 > 100 µM | SW-620 79.6 µM | M14 > 100 µM | MDA-MB-231 > 100 µM | SNB-75 99.5 µM | NCI/ADR-RES > 100 µM | MDA-N 33.3 µM | UACC-257 > 100 µM | SF-268 > 100 µM | HCT-116 76.4 µM | COLO 205 > 100 µM | KM12 > 100 µM | ACHN 47.2 µM | SR > 100 µM | SK-MEL-5 > 100 µM | MDA-MB-435 30.8 µM | LOX IMVI 37.8 µM

O=C(NCC(O)COc1ccccc1)c1ccccc1O (stereo unspecified)
inactive: NCI-H23 > 100 µM | SW-620 > 100 µM | M14 > 100 µM | MDA-MB-231 > 100 µM | Malme-3M > 100 µM | EKVX > 100 µM | NCI/ADR-RES 58.6 µM | MDA-N > 100 µM | UACC-257 > 100 µM | HCT-116 > 100 µM | COLO 205 > 100 µM | KM12 > 100 µM | ACHN > 100 µM | SR 87.7 µM | SF-539 > 100 µM | SK-MEL-5 63.5 µM | MDA-MB-435 > 100 µM | LOX IMVI > 100 µM

c1ccc(C2SCC3=Nc4ccccc4CN32)cc1 (stereo unspecified)
inactive: NCI-H23 16.6 µM | SW-620 87.5 µM | M14 31 µM | MDA-MB-231 > 100 µM | SNB-75 30.5 µM | NCI/ADR-RES 17.5 µM | MDA-N 87.7 µM | UACC-257 94.6 µM | SF-268 78.5 µM | HCT-116 14.8 µM | COLO 205 19.4 µM | KM12 43.5 µM | SR 31.4 µM | SF-539 28.4 µM | SK-MEL-5 14.4 µM | MDA-MB-435 29.7 µM | LOX IMVI 36 µM

O=[N+]([O-])C1CC/C(=N/O)c2nonc21 (stereo unspecified)
inactive: NCI-H23 > 10 µM | SW-620 > 10 µM | M14 > 10 µM | MDA-MB-231 > 10 µM | Malme-3M > 10 µM | EKVX > 10 µM | NCI/ADR-RES > 10 µM | MDA-N > 10 µM | UACC-257 > 10 µM | SF-268 > 10 µM | HCT-116 > 10 µM | COLO 205 > 10 µM | KM12 > 10 µM | ACHN > 10 µM | SR > 10 µM | SF-539 > 10 µM | SK-MEL-5 > 10 µM | MDA-MB-435 > 10 µM

c1ccc(/C(=N/Nc2cnccn2)c2ncccn2)cc1
inactive: NCI-H23 > 100 µM | SW-620 41.1 µM | M14 78.2 µM | MDA-MB-231 68.2 µM | SNB-75 13.7 µM | EKVX 18.2 µM | NCI/ADR-RES 83.2 µM | MDA-N > 100 µM | UACC-257 > 100 µM | SF-268 22.5 µM | HCT-116 > 100 µM | COLO 205 32.1 µM | KM12 39 µM | ACHN 40.7 µM | SR 12.9 µM | SF-539 > 100 µM | SK-MEL-5 39.9 µM | MDA-MB-435 > 100 µM

CC(C)=CC1C(C(=O)Oc2ccccc2C(C)C)C1(C)C (stereo unspecified)
inactive: NCI-H23 23.8 µM | SW-620 24.3 µM | M14 31.6 µM | MDA-MB-231 22.9 µM | Malme-3M 16.3 µM | SNB-75 21.3 µM | EKVX 17.3 µM | NCI/ADR-RES 30 µM | MDA-N 26.4 µM | UACC-257 19.5 µM | SF-268 35.5 µM | HCT-116 20.8 µM | KM12 18.1 µM | ACHN 18.4 µM | SR 20.9 µM | SK-MEL-5 18.2 µM | MDA-MB-435 30.8 µM | LOX IMVI 17.7 µM

NNc1nnc(CCCCCCCCc2nnc(NN)n2N)n1N
inactive: NCI-H23 97.7 µM | SW-620 > 100 µM | M14 > 100 µM | MDA-MB-231 41.5 µM | SNB-75 60.3 µM | EKVX > 100 µM | NCI/ADR-RES 80.4 µM | MDA-N > 100 µM | UACC-257 > 100 µM | SF-268 43.3 µM | HCT-116 > 100 µM | COLO 205 > 100 µM | KM12 > 100 µM | ACHN > 100 µM | SF-539 > 100 µM | SK-MEL-5 > 100 µM | MDA-MB-435 > 100 µM | LOX IMVI 21.4 µM

NC(=O)CC[C@H]1C(=O)N=C(N)N1C(=O)OCc1ccccc1
inactive: NCI-H23 > 100 µM | SW-620 > 100 µM | MDA-MB-231 > 100 µM | Malme-3M > 100 µM | SNB-75 > 100 µM | EKVX > 100 µM | NCI/ADR-RES > 100 µM | MDA-N > 100 µM | UACC-257 > 100 µM | SF-268 > 100 µM | HCT-116 > 100 µM | COLO 205 > 100 µM | KM12 > 100 µM | ACHN > 100 µM | SR > 100 µM | SK-MEL-5 > 100 µM | MDA-MB-435 > 100 µM | LOX IMVI > 100 µM

C=C1CC[C@H]2C(C)=CC[C@H]3C(=C)C(=O)O[C@@H]3[C@@H]12 [EREMANTHIN]
inactive: NCI-H23 > 100 µM | SW-620 > 100 µM | M14 > 100 µM | MDA-MB-231 > 100 µM | Malme-3M > 100 µM | EKVX > 100 µM | NCI/ADR-RES > 100 µM | MDA-N > 100 µM | UACC-257 > 100 µM | HCT-116 > 100 µM | COLO 205 92 µM | ACHN > 100 µM | SR > 100 µM | SF-539 > 100 µM | SK-MEL-5 > 100 µM | MDA-MB-435 > 100 µM | LOX IMVI > 100 µM
